Here are results for four molecules from publication PMC8398766, “Do Small Molecules Activate the TrkB Receptor in the Same Manner as BDNF? Limitations of Published TrkB Low Molecular Agonists and Screening for Novel TrkB Orthosteric Agonists” (Pharmaceuticals, 2021).

“Also recorded” adds a separate entry of the source. Read-outs that look alike come from different tables or passages of the source.

The target in one data set is TrkB. Particulars: cited from earlier work.
Data set [1] relates to TrkB and downstream proteins (PLCγ1, Akt1, ERK1/2). Put plainly: Downstream signaling immunoblot, RA-differentiated SH-SY5Y cell line. Particulars: for Phosphorylation of TrkB and downstream proteins (PLCγ1, Akt1, ERK1/2): RA-differentiated SH-SY5Y, 1, 10, 100 μM, 15 min. The format is cell-based. The procedure: The SH-SY5Y cell line was purchased from MilliporeSigma and cultured in growth medium: MEM (w/Earle’s Salts; w/L-Glutamine) + Ham’s F12 (w/L-Glutamine) (1:1 v/v), 1 × Antibiotic-Antimycotic, 1 × MEM Non-Essential Amino Acids (all reagents from Biowest, Riverside, MO, USA) and 15% FBS (Gibco, Thermo Fisher Scientific, Waltham, MA, USA). Cells were passaged using 0.25% Trypsin-EDTA (Biowest) and cultured in standard conditions (5% CO2, 37 °C with 95% relative humidity).
To differentiate SH-SY5Y, cells were seeded in a cell culture flask at a density of 10,000 cells/cm^2 in standard growth medium containing 10 μM retinoic acid (RA; MilliporeSigma) and cultured for 7 consecutive days. Then, differentiated cells were harvested by trypsinization (Trypsin-EDTA 1×, 3 min at 37 °C), centrifuged (250× g; 5 min at 25 °C) and counted. The desired experiment cells were seeded in differentiation medium (MEM:Ham’s F12 growth medium +10 μM RA) in multi-well plates at the following densities: 1,000,000 cells/well on a 6-well plate for lysate collection and immunoblot analysis, and 12,000 cells/well into a PDL-treated 96-well plate (BioCoat™, Corning Inc.) for neuroprotection experiments.
(§1) On the day of the experiments, cells were starved for 5 h with appropriate culture medium. SN56 T48 cells were treated with reference compounds at 100 μM or 1, 10, or 100 μM concentrations of the selected molecules, and 1, 10, and 100 ng/mL of BDNF. Differentiated SH-SY5Y cells were treated with 1, 10, or 100 μM concentrations of the tested molecules and 1, 10, and 100 ng/mL of BDNF for 15 min. For compound specificity, the evaluation cell lines were first pretreated with 1 μM K252a (MilliporeSigma, Saint Louis, MO, USA) for 15 min and then cotreated with 100 μM concentrations of the tested molecules.
(§2) Compound treatment was stopped by lysing cells with N-PER™ Neuronal Protein Extraction Reagent (Thermo Fisher Scientific) containing 1 × PhosSTOP™ (Roche, Basel, Switzerland), 1 × Halt Protease Inhibitor Single-Use Cocktail (ThermoFisher Scientific) and 5 mM EDTA. The lysates were collected by scraping, and centrifuged (8000× g; 10 min at 4 °C), and the protein concentration was determined using a BCA Pierce kit (ThermoFisher Scientific). The lysates were stored at −80 °C until further processing. Samples containing 20 μg of protein were further denatured in 4 × Laemli Buffer with 5% β-mercaptoethanol at 95 °C for 5 min and electrophoresed on gels prepared using a 10% TGX Stain-Free™ FastCast™ Acrylamide Kit (Bio-Rad). Afterwards, the proteins were transferred (wet transfer, 100 V, 60 min) onto nitrocellulose membranes (GE Healthcare, Chicago, IL, USA), which were blocked in 5% BSA in TBS-T (TBS + 0.1% Tween20) for 2 h. […] After repeated washes (TBS-T), the proteins were detected with HRP-conjugated anti-rabbit antibodies (1:4000, RT, 2 h) (Cell Signaling Technology), and the blots were incubated with Clarity Max ECL Western Blotting Substrate (Bio-Rad). Blot images and chemiluminescence signals were captured using a ChemiDoc MP Imaging System, and densitometry values were calculated using the Image Lab software (Bio-Rad). […]
On the technique in general: Immunoblotting shows a protein as a band on a membrane.

The test system is the same in data set [2]. Put plainly: Downstream signaling immunoblot, SN56 T48 cell line. The format is cell-based. Particulars: for Phosphorylation of TrkB and downstream proteins (PLCγ1, Akt1, ERK1/2): compounds up to 100 μM, BDNF up to 100 ng/mL, 15 min. The procedure: The SN56 T48 cell line with stable overexpression of the TrkB receptor was purchased from Emory University (Atlanta, GA, USA) and cultivated according to the protocol described in Jang et al., 2010 [12]. The cell lines were cultivated with the following reagents: DMEM High Glucose, fetal bovine serum (FBS), Penicillin-Streptomycin Solution 100×, and Trypsin-EDTA 1×; all were purchased from Biowest, and G418 was from ThermoFisher Scientific. For the ELFI experiments, cells were seeded (8000/well) on a PDL-treated 96-well plate (BioCoat™, Corning Inc., Corning, NY, USA) and 6-well plate (400,000/well) for lysate collection and immunoblot analysis.
as §1, §2

The nature of data set [3]: Metabolic stability in human liver microsomes. Particulars: compared with verapamil. For orientation: Liver microsomes are a subcellular fraction often used to study metabolism.
A short description of data set [4]: Metabolic stability in mouse liver microsomes. Particulars: compared with verapamil.
In a further data set the target is T1, TrkB receptor (Rattus norvegicus, UniProt Q63604).
T1 construct: host or cells: SN56 T48 cell line
Put plainly: ELFI TrkB phosphorylation, orthosteric agonist mode, SN56 T48 cell line. Particulars: TrkB phosphorylation (Tyr706), 15 min. The format is cell-based.

Setting [5] is: no orthosteric activity given as 0.

T1 sequence (Q63604 32-821): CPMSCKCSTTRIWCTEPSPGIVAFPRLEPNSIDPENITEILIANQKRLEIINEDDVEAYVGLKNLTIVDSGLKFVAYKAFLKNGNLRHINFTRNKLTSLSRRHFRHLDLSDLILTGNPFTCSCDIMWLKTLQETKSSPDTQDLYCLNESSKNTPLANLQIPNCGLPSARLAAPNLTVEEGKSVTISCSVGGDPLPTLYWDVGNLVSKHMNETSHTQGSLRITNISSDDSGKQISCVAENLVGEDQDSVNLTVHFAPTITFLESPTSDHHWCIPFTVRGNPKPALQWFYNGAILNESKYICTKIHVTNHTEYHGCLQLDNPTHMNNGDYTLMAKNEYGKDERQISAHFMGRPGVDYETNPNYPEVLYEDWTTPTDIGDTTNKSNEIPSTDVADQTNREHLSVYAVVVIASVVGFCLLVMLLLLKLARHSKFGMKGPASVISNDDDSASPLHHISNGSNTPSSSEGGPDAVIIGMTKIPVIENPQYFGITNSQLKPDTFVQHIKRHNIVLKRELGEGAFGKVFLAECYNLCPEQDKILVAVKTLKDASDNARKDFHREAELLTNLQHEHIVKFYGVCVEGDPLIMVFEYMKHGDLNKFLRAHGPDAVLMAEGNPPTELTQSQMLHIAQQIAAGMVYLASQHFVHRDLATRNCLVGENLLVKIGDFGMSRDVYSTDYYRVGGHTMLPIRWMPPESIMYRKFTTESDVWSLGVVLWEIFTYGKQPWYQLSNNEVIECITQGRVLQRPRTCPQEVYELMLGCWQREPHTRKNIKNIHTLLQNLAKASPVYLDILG

Take `O=c1cc(-c2ccccc2)oc2c(O)c(O)ccc12` [7,8-DHF, 7,8-dihydroxyflavone]: the Kd on TrkB (ref Jang et al. (2010) [12], read-out: Binding affinity) is 15.4 nM; at TrkB (ref Liu et al. (2014) [35], read-out: Binding affinity), 12.1 nM. Also, the results for the “Phosphorylation of TrkB and downstream proteins (PLCγ1, Akt1, ERK1/2)” value (“Phosphorylation” below) in data set [1] and in data set [2] were “did not result in the expected effect; also recorded: lack of 7,8-DHF activity” and “did not induce; also recorded: lack of 7,8-DHF activity”, respectively. The “Metabolic stability in HLM (classification)” value in data set [3] is “moderate degradation rate”. Moreover, the “Metabolic stability in MLM (classification)” value in data set [4] is recorded as “moderate degradation rate”.
As a reminder, the EC50 is the concentration needed to bring the measured effect to its halfway point. High values mean a need for much substance, low ones an effect from little substance. On to `C=CC(C)(C)c1[nH]c2ccccc2c1C1=C(O)C(=O)C(c2c[nH]c3c(CC=C(C)C)cccc23)=C(O)C1=O` [DMAQ-B1], for which the “Effect of cotreatment with K252a on the compound's effects” value in data set [1] (K252a 1 μM) is “did not inhibit”. Further, in data set [1], the “Phosphorylation” value is “able to induce the phosphorylation of TrkB, Akt1, ERK1/2, and PLCγ1”. A half-maximal response at TrkB receptor (setting [5]) (EC50) required 5000 nM. Moreover, the “Metabolic stability in HLM (classification)” value in data set [3] was “instability of this compound in the experimental system”. Also, in data set [4], the “Metabolic stability in MLM (classification)” value is “instability of this compound in the experimental system”.
As to `O=C1C(O)=C(c2c[nH]c3ccccc23)C(=O)C(O)=C1c1c[nH]c2ccccc12` [CPL503052, didemethylasterriquinone D], the “Phosphorylation” value was “able to induce the phosphorylation of TrkB, Akt1, ERK1/2, and PLCγ1” in data set [1]; “demonstrated the activation of the TrkB receptor and phosphorylation of relevant downstream proteins” in data set [2]. For the same molecule, in data set [2] (K252a 1 μM 15 min before 100 μM compound), the “Activation of downstream proteins (Akt1 and ERK1/2) after inhibition of TrkB kinase by K252a” value was “did not repress”.

B1: BDNF: Brain-derived neurotrophic factor, endogenous TrkB receptor agonist (protein, UniProt P23560 19-247, looked up)
Neurotrophic factor BDNF …: APMKEANIRGQGGLAYPGVRTHGTLESVNGPKAGSRGLTSLADTFEHVIEELLDEDQKVRPNEENNKDADLYTSRVMLSSQVPLEPPLLFLLEEYKNYLDAANMSMRVRRHSDPARRGELSVCDSISEWVTAADKKTAVDMSGGTVTVLEKVPVSKGQLKQYFYETKCNPMGYTKEGCRGIDKRHWNSQCRTTQSYVRALTMDSKKRIGWRFIRIDTSCVCTLTIKRGR
With B1, on TrkB (SPR, ref [12],[35], read-out: Kd), the Kd is 1.7 nM. Also, the “Phosphorylation” value in data set [1] was “induced the TrkB receptor and phosphorylation of downstream proteins”; in data set [2], “significantly increased phosphorylation”. The figures for the concentration giving a half-maximal response (EC50) with TrkB receptor and with TrkB receptor (setting [5]) were 3.7 nM and 4 nM, respectively.
